The supplement of paper PMC11061612

Legend:
[1] = tested on: JVM-3 (B-Cell Non-Hodgkin's Lymphoma); assay: Bliss excess, mean over the matrix (fraction); higher = more synergy
In short: (§1)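 Cell lines in DMEM/F12 or RPMI with 10% FBS were plated in 1536-well plates, held 24 hours at 37°C, 5% CO2, then given two-drug dose matrices for 72 hours (DMSO typically 0.2%). Viability was read by CellTiter-Glo 2.0 luminescence and scaled as inhibition from 0 (vehicle wells) to 1 (blank wells). Combination Emax is the second-highest inhibition in the matrix; Bliss excess is observed combination effect minus expected EA + EB − EA·EB, EA and EB being single-agent effects.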

[2] = tested on: KMOE-2 (Acute Myeloid Leukemia); assay: as above
In short: as §1

[3] = tested on: SCC-15 (Oral Cavity Carcinoma); assay: as above
In short: as §1

[4] = tested on: JVM-3 (B-Cell Non-Hodgkin's Lymphoma); assay: combination Emax (second highest fraction inhibited in the dose matrix, 72 h); higher = more inhibition; extreme values may be limits of the assay
In short: as §1
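Wherever Bliss excess, mean over the matrix is given: after 72 h of two-drug dosing.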

Compound	Bliss excess [1]	Bliss excess [2]	Bliss excess [3]	combination Emax [4]
Cc1c2c(nn1C)CSCc1cc(n(C)n1)CSc1cc(c3ccccc3c1)OCCCc1c(C(=O)O)n(C)c3c-2c(Cl)ccc13 [AZD5991] + C[C@@H](Nc1cc(F)cc(F)c1)c1cc(C(=O)N(C)C)cc2c(=O)cc(N3CCOCC3)oc12 [AZD8186] (first compound max 1 µM, 7x7, partner max 3 µM)	-0.0119	-0.0378	0.0139	0.44
COc1cccc(OCCCN)c1-c1cc(Nc2cnc(C#N)cn2)n[nH]1 [Prexasertib] + O=C(c1cc(Cc2n[nH]c(=O)c3ccccc23)ccc1F)N1CCN(C(=O)C2CC2)CC1 [Olaparib] (first compound max 1 µM, 7x7, partner max 10 µM)	-0.0314	0.0279	0.0242	0.986
CN(C)CCCOc1ccc(-c2ccc3ncc4c(c3c2)n(C2CCOCC2)c(=O)n4C)cn1 [AZD0156] + O=C(c1cc(Cc2n[nH]c(=O)c3ccccc23)ccc1F)N1CCN(C(=O)C2CC2)CC1 [Olaparib] (first compound max 3 µM, partner max 3 µM)	0.234	0.0564	0.067	0.684
CC1(C)CCC(CN2CCN(c3ccc(C(=O)NS(=O)(=O)c4ccc(NCC5CCOCC5)c([N+](=O)[O-])c4)c(Oc4cnc5[nH]ccc5c4)c3)CC2)=C(c2ccc(Cl)cc2)C1 [Venetoclax] + C1CN(CCC1(C(=O)N[C@@H](CCO)C2=CC=C(C=C2)Cl)N)C3=NC=NC4=C3C=CN4 [Capivasertib] (first compound max 1 µM, 7x7, partner max 3 µM)	0.0192	0.0121	-0.0639	0.636
CC1(C)CCC(CN2CCN(c3ccc(C(=O)NS(=O)(=O)c4ccc(NCC5CCOCC5)c([N+](=O)[O-])c4)c(Oc4cnc5[nH]ccc5c4)c3)CC2)=C(c2ccc(Cl)cc2)C1 [Venetoclax] + Cc1cc2ncnn2cc1Nc1ncc2c(n1)n(C1CCOCC1)c(=O)n2C [AZD7648] (first compound max 1 µM, 7x7, partner max 10 µM)	-0.0799	-0.0596	-0.0303	0.64
CC1(C)CCC(CN2CCN(c3ccc(C(=O)NS(=O)(=O)c4ccc(NCC5CCOCC5)c([N+](=O)[O-])c4)c(Oc4cnc5[nH]ccc5c4)c3)CC2)=C(c2ccc(Cl)cc2)C1 [Venetoclax] + C[C@@H]1COCCN1C2=NC(=NC(=C2)C3(CC3)[S@](=N)(=O)C)C4=C5C=CNC5=NC=C4 [AZD6738] (first compound max 1 µM, 7x7, partner max 10 µM)	0.0106	0.0071	-0.06	0.9
COc1cccc(OCCCN)c1-c1cc(Nc2cnc(C#N)cn2)n[nH]1 [Prexasertib] + CCc1c2c(nc3ccc(O)cc13)-c1cc3c(c(=O)n1C2)COC(=O)[C@]3(O)CC [SN-38] (first compound max 1 µM, 7x7, partner max 0.3 µM)	-0.0363	0.0296	-0.0236	0.994
